# In patent publication US20030031690A1, “Cosmetic composition for preventing and treating acnes containing cryptotanshinone” (priority 2001, published 2003):
# Legend:
# Propionibacterium acnes = test: Antibacterial ability against Propionibacterium acnes (MIC on BHI solid flat medium); assay type: cell-based; conditions: P. acnes, three days
# Description: To measure the antibacterial ability of cryptotanshinone against Propionibacterium acnes (P. acnes hereinafter), P. acnes kept in a cold storage in original state was cultivated on a BHI (Brain Heart Infusion) solid flat medium three days before the beginning of experiment. On the day of experiment, the P. acnes previously cultivated was inoculated into BHI solid flat medium containing the predetermined concentration of cryptotanshinone. Three days later after that, the minimum inhibition concentration (MIC) is obtained by measuring the number of P. acnes. The experiment was conducted in the same manner as experimental example 5, except for using benzoyl peroxide instead of cryptotanshinone.
# ears of mice = test: Anti-inflammation effect, arachidonic acid-induced ear edema; assay type: in vivo; conditions: for Thickness of ear After applying agent / Thickness of ear Before applying agent: agent 0.3% in ethanol once a day for four days, average of 7 mice; for Thickness of ear After applying agent: 2 mg/ear arachidonic acid, one hour after; for Restraint rate: agent 0.3% in ethanol, (A − B)/A × 100 against comparative group
# Method: When inflammation is generated due to P. acnes, become more serious. Accordingly, the effect of alleviating the inflammation due to acne is verified by assessing the anti-inflammatory effect of cryptotanshinone. The experiment is conducted by a method using arachidonic acid (A. Crummey, G. P. Harper, E. A. Boyle and F. R. Mangan. Inhibition of arachidonic acid-induced ear oedema as a model for assessing topical anti-inflammatory compound. Agents and Actions 1987; 20:69-76).
# After washing both ears of mice with ethanol before applying the agent, 201 o f cryptotanshinone having a concentration of 0.3% is applied to the ears of mice belonging to an agent application group once a day for four days, while 201 o f ethanol is applied to mice in a comparative group. One hour after the last application, ethanol is applied to the left ears of mice and 2 mg/ear of arachidonic acid is applied to the right ears of mice. One hour after that, the degree of ear edema is repeatedly measured by micrometer three times for each ear. The left ears of mice in the agent application group are used as a comparative group for measuring the degree of inflammation being induced by the agent.
# The anti-inflammatory effect is assessed by the degree that the edema in the agent application group is restrained by cryptotanshinone on the basis of the comparative group to which arachidonic acid is applied. The number of mice used for each group is seven and the value is an average of those of 7 mice.
# The experiments are conducted in the same manner as experimental example 6, except for respectively using stearyl glycyrrhetinate and indomethacin instead of cryptotanshinone.
# 5 α-reductase = test: Inhibition of 5 α-reductase (conversion of 3H-testosterone to dihydrotestosterone, HPLC); assay type: biochemical
# Method: 30 l of Phosphate Buffered Saline (PBS/pH 6.6) is mixed with 101 of dithiothreitol, NADPH, and testosterone, into which radioactive isotopes are combined (3H-1, 2, 4, 5, 6, 7-testosterone), 401 of extract liquid of enzyme 5 α-reductase, and 20 l of cryptotanshinone having 0.001% of concentration. Next, the composition mentioned above is left at the normal temperature for 10 minutes so that the materials in the composition react to each other, and then the amount of converted dihydrotestosterone are measured by HPLC and a measuring instrument of radioisotope.
# Inhibition rate (%)=[…].
# The experiments are conducted in the same manner as experimental example 1, except for changing the concentration of cryptotanshinone as described in Table 1.
"MIC (Propionibacterium acnes; Cutibacterium acnes, 72 h)",Compound,Thickness of ear After applying agent (ears of mice),Thickness of ear Before applying agent (ears of mice),Restraint rate (ears of mice),Inhibition rate (5 α-reductase; concentration of cryptotanshinone 0.001%),Inhibition rate (5 α-reductase; concentration of cryptotanshinone 0.01%),Inhibition rate (5 α-reductase; concentration of cryptotanshinone 0.1%),Inhibition rate (5 α-reductase; concentration of cryptotanshinone 1.0%),MIC (mole) (Propionibacterium acnes)
500 to 1000 µg/mL,"O=C(OOC(=O)c1ccccc1)c1ccccc1 [Benzoyl peroxide, reference compound]",–,–,–,–,–,–,–,–
–,"COc1ccc2c(c1)c(CC(=O)O)c(C)n2C(=O)c1ccc(Cl)cc1 [Indomethacin, indomethacin]",391,273,46.6%,–,–,–,–,–
–,"CCCCCCCCCCCCCCCCCCOC(=O)[C@@]1(C)CC[C@]2(C)CC[C@]3(C)C(=CC(=O)[C@@H]4[C@@]5(C)CC[C@H](O)C(C)(C)[C@@H]5CC[C@]43C)[C@@H]2C1 [Stearyl Glycyrrhetinate, stearyl glycyrrhetinate]",454,268,15.8%,–,–,–,–,–
–,Cryptotanshinone,437,271,24.9%,19.1%,36.0%,45.9%,100%,100-500 ppm
